For 21 compounds, IC50 results are on record in patent US20190127366A1 (LifeSci Pharmaceuticals, Inc., priority 2015, published 2019).

What is called IC50 is the concentration at which inhibition is half-maximal.

Bounds are passed on as bounds.

The target of the experiment is T1, human complement factor D (Homo sapiens, UniProt P00746).
T1 construct: purchased R&D Systems 1824-SE
T1 sequence (P00746 26-253): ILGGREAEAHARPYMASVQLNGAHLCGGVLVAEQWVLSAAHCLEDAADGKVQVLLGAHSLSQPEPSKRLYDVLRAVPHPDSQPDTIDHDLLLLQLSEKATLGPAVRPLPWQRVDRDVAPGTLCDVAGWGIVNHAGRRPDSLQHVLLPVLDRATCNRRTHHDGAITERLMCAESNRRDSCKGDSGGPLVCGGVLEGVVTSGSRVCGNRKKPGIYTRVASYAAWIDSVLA
As to the kind of experiment: In vitro enzyme inhibition (Z-Lys-SBzl/DTNB absorbance assay). To be noted: Complement Factor D (R&D Systems), substrate Z-Lys-SBzl, A405 nm; read-out: CFD IC50. The experiment is classed as biochemical. The procedure: The ability of the compounds disclosed herein to inhibit human complement factor D inhibitory activity was quantified according to the 12-step protocol provided below. • 1. Prepare assay buffer: 50 mM Tris/HCl, pH 7.5, 1 M NaCl. • 2. Dilute 10 mM Complement Factor D inhibitor Nafamostat Mesilate (Selleckchem, Catalog #S1386) solution from 10000 μM to 9.77 μM in 100% DMSO, 8 concentrations. Then dilute the serial concentrations of Nafamostat Mesilate 20-fold in assay buffer. • 3. Add 10 μl diluted Nafamostat Mesilate duplicated into each of the inhibitor control well of a 96-well plate (Corning, Catalog #3599). Final concentrations were 50 μM, 25 μM, 12.5 μM, 6.25 μM, 3.125 μM, 0.781 μM, 0.195 μM and 0.049 μM. 0.5% DMSO was in each well finally. • 4. Dilute 20 mM test compounds from 10000 μM to […] in 100% DMSO, 6-fold dilution, 8 concentrations. Then dilute the serial concentrations of test compounds 20-fold in assay buffer. • 5. Add 10 μl diluted test compounds duplicated into the 96-well plate. Final concentrations were 50 μM, 8.33 μM, 1.39 μM, 0.23 μM, 0.0386 μM, 0.0064 μM, 0.0011 μM and 0.0002 μM. 0.5% DMSO was in each well finally. • 6. Dilute 20 mM substrate Z-Lys-SBzl (Bachem, Cat #M-1300) to 200 μM in assay buffer with 200 μM DTNB(Sigma, Catalog #D8130). • 7. Dilute 738 ng/μL Complement Factor D (R&D Systems, Catalog #1824-SE) to 6.25 ng/μL in assay buffer. Add 40 μl diluted Complement Factor D in the 96-well plate. • 8. Positive control well contains Complement Factor D without test compound. Negative control well contains neither Complement Factor D nor test compound. Using assay buffer, bring the total volume of all controls to 50 μl. • 9. Pre-incubate the plate for 5 min at room temperature. • 10. Add 50 μl of diluted substrate/DTNB mixture into each well. Mix the reagents completely by shaking the plate gently for 30 sec. • 11. For kinetic reading: Immediately start measuring absorbance (A405 nm) continuously and record data every 30sec for 60 min. • 12. Data analysis • Inhibition activity of compound was evaluated by IC50. IC50 was calculated according the dose-response curve of compound fitted using GraphPadPrism with “log(inhibitor)-response (variable slope)” equation. • % inhibition was calculated by using following equation:
[formula] • Mean(NC): The average value of the negative control wells' A405 nm values. • Mean(PC): The average value of the positive control wells' A405 nm values.
The ability of the compounds in Table 2 to inhibit human complement factor D inhibitory activity was determined.
With `NC(=O)c1nn(CC(=O)N2[C@@H]3CC[C@@H](C3)[C@H]2C(=O)Nc2ncccc2Cl)c2ccccc12` [Example 54, 1-(2-((1R,3S,4S)-3-((3-chloropyridin-2-yl)carbamoyl)-2-azabicyclo[2.2.1]heptan-2-yl)-2-oxoethyl)-1H-indazole-3-carboxamide], the IC50 is > 10000 nM.
To `NC(=O)c1nn(CC(=O)N2[C@@H]3CC[C@@H](C3)[C@H]2C(=O)Nc2cc(C(F)(F)F)ccn2)c2ccccc12` [Example 55, 1-(2-oxo-2-((1R,3S,4S)-3-((4-(trifluoromethyl)pyridin-2-yl)carbamoyl)-2-azabicyclo[2.2.1]heptan-2-yl)ethyl)-1H-indazole-3-carboxamide] belongs > 10000 nM.
For `NC(=O)c1nn(CC(=O)N2[C@@H]3CC[C@@H](C3)[C@H]2C(=O)Nc2ccnc(Cl)c2)c2ccccc12` [Example 57, 1-(2-((1R,3S,4S)-3-((2-chloropyridin-4-yl)carbamoyl)-2-azabicyclo[2.2.1]heptan-2-yl)-2-oxoethyl)-1H-indazole-3-carboxamide], the IC50 lay in the range of 1000 to 10000 nM.
As to `NC(=O)c1nn(CC(=O)N2[C@@H]3CC[C@@H](C3)[C@H]2C(=O)Nc2cncc(Cl)c2)c2ccccc12` [Example 58, 1-(2-((1R,3S,4S)-3-((5-chloropyridin-3-yl)carbamoyl)-2-azabicyclo[2.2.1]heptan-2-yl)-2-oxoethyl)-1H-indazole-3-carboxamide], the IC50 lay within 1000 to 10000 nM.
Consider `Cc1ccc2c(c1)c(C(N)=O)nn2CC(=O)N1[C@@H]2CC[C@@H](C2)[C@H]1C(=O)NCc1cccc(Cl)c1F` [Example 60, 1-(2-((1R,3S,4S)-3-((3-chloro-2-fluorobenzyl)carbamoyl)-2-azabicyclo[2.2.1]heptan-2-yl)-2-oxoethyl)-5-methyl-1H-indazole-3-carboxamide], for which the IC50 was in the range of 100 to 1000 nM.
Then `Cc1ccc2c(c1)c(C(N)=O)nn2CC(=O)N1[C@@H]2CC[C@@H](C2)[C@H]1C(=O)Nc1cccc(Cl)n1` [Example 61, 1-(2-((1R,3S,4S)-3-((6-chloropyridin-2-yl)carbamoyl)-2-azabicyclo[2.2.1]heptan-2-yl)-2-oxoethyl)-5-methyl-1H-indazole-3-carboxamide], with 100 to 1000 nM; and `NC(=O)c1nn(CC(=O)N2[C@@H]3CC[C@@H](C3)[C@H]2C(=O)Nc2cccc(Cl)n2)c2ccc(F)cc12` [Example 62, 1-(2-((1R,3S,4S)-3-((6-chloropyridin-2-yl)carbamoyl)-2-azabicyclo[2.2.1]heptan-2-yl)-2-oxoethyl)-5-fluoro-1H-indazole-3-carboxamide], with 100 to 1000 nM.
To `NC(=O)c1nn(CC(=O)N2[C@@H]3CC[C@@H](C3)[C@H]2C(=O)NCc2ccc(F)c(Cl)c2)c2ccccc12` [Example 63, 1-(2-((1R,3S,4S)-3-((3-chloro-4-fluorobenzyl)carbamoyl)-2-azabicyclo[2.2.1]heptan-2-yl)-2-oxoethyl)-1H-indazole-3-carboxamide 2,2,2-trifluoroacetate] belongs 1000 to 10000 nM.
`NC(=O)c1nn(CC(=O)N2[C@@H]3CC[C@@H](C3)[C@H]2C(=O)NCc2cc(F)cc(Cl)c2)c2ccccc12` [Example 64, 1-(2-((1R,3S,4S)-3-((3-chloro-5-fluorobenzyl)carbamoyl)-2-azabicyclo[2.2.1]heptan-2-yl)-2-oxoethyl)-1H-indazole-3-carboxamide 2,2,2-trifluoroacetate]: the IC50 lay within 100 to 1000 nM.
To `Cc1cc(C)nc(NC(=O)[C@@H]2[C@H]3CC[C@H](C3)N2C(=O)Cn2nc(C(N)=O)c3ccccc32)c1` [Example 67, 1-(2-((1R,3S,4S)-3-((4,6-dimethylpyridin-2-yl)carbamoyl)-2-azabicyclo[2.2.1]heptan-2-yl)-2-oxoethyl)-1H-indazole-3-carboxamide 2,2,2-trifluoroacetate] belongs > 10000 nM; to `Cc1ccc(NC(=O)[C@@H]2[C@H]3CC[C@H](C3)N2C(=O)Cn2nc(C(N)=O)c3ccccc32)nc1Cl` [Example 68, 1-(2-((1R,3S,4S)-3-((6-chloro-5-methylpyridin-2-yl)carbamoyl)-2-azabicyclo[2.2.1]heptan-2-yl)-2-oxoethyl)-1H-indazole-3-carboxamide 2,2,2-trifluoroacetate], 100 to 1000 nM; to `NC(=O)c1nn(CC(=O)N2[C@@H]3CC[C@@H](C3)[C@H]2C(=O)NCc2cc(Cl)ccc2Cl)c2ccccc12` [Example 69, 1-(2-((1R,3S,4S)-3-((2,5-dichlorobenzyl)carbamoyl)-2-azabicyclo[2.2.1]heptan-2-yl)-2-oxoethyl)-1H-indazole-3-carboxamide], 1000 to 10000 nM.
Then `NC(=O)c1nn(CC(=O)N2[C@@H]3CC[C@@H](C3)[C@H]2C(=O)NCc2cccc(Cl)c2Cl)c2ccccc12` [Example 70, 1-(2-((1R,3S,4S)-3-((2,3-dichlorobenzyl)carbamoyl)-2-azabicyclo[2.2.1]heptan-2-yl)-2-oxoethyl)-1H-indazole-3-carboxamide], with 100 to 1000 nM; and `NC(=O)c1nn(CC(=O)N2[C@@H]3CC[C@@H](C3)[C@H]2C(=O)NCc2ccc(Cl)c(Cl)c2)c2ccccc12` [Example 72, 1-(2-((1R,3S,4S)-3-((3,4-dichlorobenzyl)carbamoyl)-2-azabicyclo[2.2.1]heptan-2-yl)-2-oxoethyl)-1H-indazole-3-carboxamide], with 1000 to 10000 nM.
To `NC(=O)c1nn(CC(=O)N2[C@@H]3CC[C@@H](C3)[C@H]2C(=O)Nc2cccc(Cl)n2)c2ccc([N+](=O)[O-])cc12` [Example 73, 1-(2-((1R,3S,4S)-3-((6-chloropyridin-2-yl)carbamoyl)-2-azabicyclo[2.2.1]heptan-2-yl)-2-oxoethyl)-5-nitro-1H-indazole-3-carboxamide] belongs 1000 to 10000 nM; to `COc1ccc2c(c1)c(C(N)=O)nn2CC(=O)N1[C@@H]2CC[C@@H](C2)[C@H]1C(=O)Nc1cccc(Cl)n1` [Example 74, 1-(2-((1R,3S,4S)-3-((6-chloropyridin-2-yl)carbamoyl)-2-azabicyclo[2.2.1]heptan-2-yl)-2-oxoethyl)-5-methoxy-1H-indazole-3-carboxamide], 1000 to 10000 nM.
Take `NC(=O)c1nn(CC(=O)N2[C@@H]3CC[C@@H](C3)[C@H]2C(=O)Nc2cccc(Cl)n2)c2ccc(N)cc12` [Example 75, 5-amino-1-(2-((1R,3S,4S)-3-((6-chloropyridin-2-yl)carbamoyl)-2-azabicyclo[2.2.1]heptan-2-yl)-2-oxoethyl)-1H-indazole-3-carboxamide]: the IC50 fell in the range of 100 to 1000 nM.
Then `NC(=O)c1nn(CC(=O)N2[C@@H]3CC[C@@H](C3)[C@H]2C(=O)Nc2ccc(Cl)c(Cl)n2)c2ccccc12` [Example 76, 1-(2-((1R,3S,4S)-3-((5,6-dichloropyridin-2-yl)carbamoyl)-2-azabicyclo[2.2.1]heptan-2-yl)-2-oxoethyl)-1H-indazole-3-carboxamide], with 100 to 1000 nM; and `COC(=O)c1ccc2c(c1)c(C(N)=O)nn2CC(=O)N1[C@@H]2CC[C@@H](C2)[C@H]1C(=O)Nc1cccc(Cl)n1` [Example 78, methyl 3-carbamoyl-1-(2-((1R,3S,4S)-3-((6-chloropyridin-2-yl)carbamoyl)-2-azabicyclo[2.2.1]heptan-2-yl)-2-oxoethyl)-1H-indazole-5-carboxylate], with 100 to 1000 nM.
To `COc1ccc2c(c1)c(C(C)=O)nn2CC(=O)N1[C@@H]2CC[C@@H](C2)[C@H]1C(=O)Nc1cccc(Cl)n1` [Example 79, (1R,3S,4S)-2-(2-(3-acetyl-5-methoxy-1H-indazol-1-yl)acetyl)-N-(6-chloropyridin-2-yl)-2-azabicyclo[2.2.1]heptane-3-carboxamide] belongs 100 to 1000 nM; to `N#Cc1ccc2c(c1)c(C(N)=O)nn2CC(=O)N1[C@@H]2CC[C@@H](C2)[C@H]1C(=O)Nc1cccc(Cl)n1` [Example 81, 1-(2-((1R,3S,4S)-3-((6-chloropyridin-2-yl)carbamoyl)-2-azabicyclo[2.2.1]heptan-2-yl)-2-oxoethyl)-5-cyano-1H-indazole-3-carboxamide], 100 to 1000 nM.
